Where two headings read alike, the source gives them in different places.
Experiments:
Du145 = assay: High-throughput calcein AM cytotoxicity assay, Du145; type: cell-based, human; conditions: Du145 cells
Source text: (§1) Standard errors are depicted with error bars.

MCF7 = assay: High-throughput calcein AM cytotoxicity assay, MCF7; type: cell-based, human; conditions: MCF7 cells
Source text: as §1

HCT-116 = assay: High-throughput calcein AM cytotoxicity assay, HCT-116; type: cell-based, human; conditions: HCT-116 cells
Source text: as §1

Hep3B = assay: High-throughput calcein AM cytotoxicity assay, Hep3B; type: cell-based, human; conditions: Hep 3B cells
Source text: as §1

NCI-H460 = assay: High-throughput calcein AM cytotoxicity assay, NCI-H460; type: cell-based, human; conditions: NCI-H460 cells
Source text: as §1

A549 = assay: High-throughput calcein AM cytotoxicity assay, A549; type: cell-based, human; conditions: A549 cells
Source text: as §1

NCI/ADR-RES = assay: cells; type: cell-based, human; conditions: NCI/ADR-RES cells
How it was run: (§2)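 Live-cell esterase read-out: calcein AM added for 30 min at 37° C after 72 h compound exposure and a PBS wash. Dosing used a five-point 1:2 series. IC50 values are variable-slope logistic fits over at least six replicate experiments.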

SF-268 = assay: cells; type: cell-based, human; conditions: SF-268 cells
How it was run: as §2

SK-OV-3 = assay: cells; type: cell-based, human; conditions: SK-OV-3 cells
How it was run: as §2

NmuMG = assay: cells; type: cell-based, mouse
How it was run: as §2

[1] = NmuMG mouse mammary normal epithelial control line, read-out: IC50, NmuMG
[2] = NmuMG cells (mouse mammary normal epithelial control line), read-out: IC50

| Molecule | IC50 (Du145; read-out: IC50, Du145) [nM] | IC50 (MCF7; read-out: IC50, MCF7) [nM] | IC50 (HCT-116; read-out: IC50, HCT-116) [nM] | IC50 (Hep3B; read-out: IC50, Hep 3B) [nM] | IC50 (NCI-H460; read-out: IC50, NCI-H460) [nM] | IC50 (A549; read-out: IC50, A549) [nM] | IC50 (NCI/ADR-RES; read-out: IC50, NCI/ADR-RES) [nM] | IC50 (SF-268; read-out: IC50, SF-268) [nM] | IC50 (SK-OV-3; read-out: IC50, SK-OV-3) [nM] | IC50 (NmuMG; [1]) [nM] | IC50 (Du145; read-out: IC50) [nM] | IC50 (MCF7; read-out: IC50) [nM] | IC50 (HCT-116; read-out: IC50) [nM] | IC50 (Hep3B; read-out: IC50) [nM] | IC50 (NCI-H460; read-out: IC50) [nM] | IC50 (A549; read-out: IC50) [nM] | IC50 (NCI/ADR-RES; read-out: IC50) [nM] | IC50 (SF-268; read-out: IC50) [nM] | IC50 (SK-OV-3; read-out: IC50) [nM] | IC50 (NmuMG; [2]) [nM] |
| --- | --- | --- | --- | --- | --- | --- | --- | --- | --- | --- | --- | --- | --- | --- | --- | --- | --- | --- | --- | --- |
| CON([C@H]1CC[C@@]2(C)[C@H](CC[C@@H]3[C@@H]2CC[C@]2(C)[C@@H](C4=CC(=O)OC4)CC[C@]32O)C1)[C@@H]1OC[C@@H](O)[C@H](O)[C@H]1O [24β, D-xyloside] | 820 | 1800 | 1800 | 1200 | 1800 | 1100 | 540 | 2100 | 1800 | 900 |  |  |  |  |  |  |  |  |  |  |
| CON(C1CCC2(C)C(CCC3C2CCC2(C)C(C4=CC(=O)OC4)CCC32O)C1)C1OCC(O)C(O)C1O [32α, L-arabinoside] |  |  |  |  |  |  |  |  |  |  | > 25000 | > 25000 | > 25000 | > 25000 | > 25000 | > 25000 | > 25000 | > 25000 | > 25000 | > 25000 |
| CON([C@H]1CC[C@@]2(C)[C@H](CC[C@@H]3[C@@H]2CC[C@]2(C)[C@@H](C4=CC(=O)OC4)CC[C@]32O)C1)[C@H]1O[C@@H](C)[C@@H](O)[C@@H](O)[C@@H]1O [7β, L-fucoside] | 700 | 1300 | 1200 | 350 | 600 | 300 | 250 | 900 | 500 | > 25000 |  |  |  |  |  |  |  |  |  |  |
| CON(C1CCC2(C)C(CCC3C2CCC2(C)C(C4=CC(=O)OC4)CCC32O)C1)C1OC(C(=O)O)C(O)C(O)C1O [38α, D-galacturonoside] |  |  |  |  |  |  |  |  |  |  | > 25000 | > 25000 | > 25000 | > 25000 | > 25000 | > 25000 | > 25000 | > 25000 | > 25000 | > 25000 |
| CON([C@H]1CC[C@@]2(C)[C@H](CC[C@@H]3[C@@H]2CC[C@]2(C)[C@@H](C4=CC(=O)OC4)CC[C@]32O)C1)[C@@H]1O[C@H](C)[C@H](O)[C@H](O)[C@H]1O [8β, D-fucoside] | 3900 | 11000 | 7000 | 4900 | 1300 | 1800 | 1500 | 10000 | 5000 | > 25000 |  |  |  |  |  |  |  |  |  |  |
| C[C@]12CC[C@H](O[C@@H]3O[C@H](CO)[C@@H](O)[C@H](O)[C@H]3O)C[C@H]1CC[C@@H]1[C@@H]2CC[C@]2(C)[C@@H](C3=CC(=O)OC3)CC[C@]12O [43β, O-D-glucoside] | 220 | 700 | 600 | 210 | 390 | 290 | 190 | 220 | 400 | > 25000 |  |  |  |  |  |  |  |  |  |  |
| CON(C1CCC2(C)C(CCC3C2CCC2(C)C(C4=CC(=O)OC4)CCC32O)C1)C1OC(CF)C(O)C(O)C1O [13α, 6-deoxy-6-fluoro-D-glucoside] | > 25000 | > 25000 | > 25000 | > 25000 | > 25000 | > 25000 | > 25000 | > 25000 | > 25000 | > 25000 |  |  |  |  |  |  |  |  |  |  |
| CON(C1CCC2(C)C(CCC3C2CCC2(C)C(C4=CC(=O)OC4)CCC32O)C1)C1OC(CO)C(O)C(O)C1O [42β, L-glucoside] | 1300 | 600 | 900 | 900 | 1300 | 800 | 550 | 1900 | 1000 | 1200 |  |  |  |  |  |  |  |  |  |  |
| CON(C1CCC2(C)C(CCC3C2CCC2(C)C(C4=CC(=O)OC4)CCC32O)C1)C1OCC(O)C(O)C1O [6α, D-riboside] | > 25000 | > 25000 | > 25000 | > 25000 | > 25000 | > 25000 | > 25000 | > 25000 | > 25000 | > 25000 |  |  |  |  |  |  |  |  |  |  |
| CON(C1CCC2(C)C(CCC3C2CCC2(C)C(C4=CC(=O)OC4)CCC32O)C1)C1OC(CO)C(O)C(O)C1O [18α, D-alloside] | > 25000 | > 25000 | > 25000 | > 25000 | > 25000 | > 25000 | > 25000 | > 25000 | > 25000 | > 25000 |  |  |  |  |  |  |  |  |  |  |
| CON([C@H]1CC[C@@]2(C)[C@H](CC[C@@H]3[C@@H]2CC[C@]2(C)[C@@H](C4=CC(=O)OC4)CC[C@]32O)C1)[C@H]1O[C@@H](CO)[C@H](O)[C@H](O)[C@H]1O [19β, L-altroside] | 2100 | 1300 | 1100 | 2000 | 1600 | 760 | 410 | 1200 | 1000 | 1000 |  |  |  |  |  |  |  |  |  |  |
| CON(C1CCC2(C)C(CCC3C2CCC2(C)C(C4=CC(=O)OC4)CCC32O)C1)C1OC(CO)C(O)C(O)C1O [42α, L-glucoside] |  |  |  |  |  |  |  |  |  |  | > 25000 | > 25000 | > 25000 | > 25000 | > 25000 | > 25000 | > 25000 | > 25000 | > 25000 | > 25000 |
| CON([C@H]1CC[C@@]2(C)[C@H](CC[C@@H]3[C@@H]2CC[C@]2(C)[C@@H](C4=CC(=O)OC4)CC[C@]32O)C1)[C@@H]1O[C@H](CO)[C@@H](O)[C@H](O)[C@H]1F [12β, 2-deoxy-2-fluoro-D-glucoside] | 9000 | 8000 | 8000 | 8000 | 2900 | 3700 | 2600 | 7000 | 9000 | > 25000 |  |  |  |  |  |  |  |  |  |  |
| CON(C1CCC2(C)C(CCC3C2CCC2(C)C(C4=CC(=O)OC4)CCC32O)C1)C1OC(C(=O)O)C(O)C(O)C1O [38β, D-galacturonoside] | 1900 | 5000 | 2700 | 2100 | 1400 | 2200 | 1600 | 2200 | 3100 | > 25000 |  |  |  |  |  |  |  |  |  |  |
| CON([C@H]1CC[C@@]2(C)[C@H](CC[C@@H]3[C@@H]2CC[C@]2(C)[C@@H](C4=CC(=O)OC4)CC[C@]32O)C1)[C@@H]1O[C@H](CO)[C@H](O)[C@@H](O)[C@H]1O [25β, D-guloside] | 5700 | 900 | 2100 | 1900 | 2600 | 2000 | 1100 | 2000 | 2200 | 1800 |  |  |  |  |  |  |  |  |  |  |
| CON(C1CCC2(C)C(CCC3C2CCC2(C)C(C4=CC(=O)OC4)CCC32O)C1)C1OC(CO)C(O)C(O)C1O [26α, L-mannoside] | > 25000 | > 25000 | > 25000 | > 25000 | > 25000 | > 25000 | > 25000 | > 25000 | > 25000 |  |  |  |  |  |  |  |  |  |  | > 25000 |
| CON(C1CCC2(C)C(CCC3C2CCC2(C)C(C4=CC(=O)OC4)CCC32O)C1)C1OC(CO)C(O)C(O)C1O [27α, D-mannoside] | > 25000 | > 25000 | > 25000 | > 25000 | > 25000 | > 25000 | > 25000 | > 25000 | > 25000 |  |  |  |  |  |  |  |  |  |  | > 25000 |
| D-arabinoside [33α] |  |  |  |  |  |  |  |  |  |  | > 25000 | > 25000 | > 25000 | > 25000 | > 25000 | > 25000 | > 25000 | > 25000 | > 25000 | > 25000 |
| CON([C@H]1CC[C@@]2(C)[C@H](CC[C@@H]3[C@@H]2CC[C@]2(C)[C@@H](C4=CC(=O)OC4)CC[C@]32O)C1)[C@@H]1O[C@H](CO)[C@H](O)[C@@H](O)[C@@H]1O [29β, D-idoside] | 1300 | 440 | 2300 | 300 | 1300 | 370 | 1500 | 1300 | 1500 | > 25000 |  |  |  |  |  |  |  |  |  |  |
| CON(C1CCC2(C)C(CCC3C2CCC2(C)C(C4=CC(=O)OC4)CCC32O)C1)C1OCC(O)C(O)C1O [15α, D-lyxoside] | > 25000 | > 25000 | > 25000 | > 25000 | > 25000 | > 25000 | > 25000 | > 25000 | > 25000 | > 25000 |  |  |  |  |  |  |  |  |  |  |

From patent US8507411B2, “Neoglycorandomization and digitoxin analogs” (priority 2004, dated 2013)
